Experimental data from ChEMBL document CHEMBL1201862, “PubChem BioAssay data set” (2004).
Calls of active or inactive are those of the source.

What was measured:
[1] = target: SWI/SNF-related matrix-associated actin-dependent regulator of chromatin subfamily A member 2 (Homo sapiens, UniProt P51531); assay: Luminescence-based cell-based high throughput dose response assay to identify activators of the function of SWI/SNF related, matrix associated, actin dependent regulator of chromatin, subfamily a, member 2 (SMARCA2, BRM).; format: functional
[2] = Counterscreen for activators of the function of SWI/SNF related, matrix associated, actin dependent regulator of chromatin, subfamily a, member 2 (SMARCA2, BRM): Luminescence-based cell-based high throughput dose response assay to identify non-selective compounds using the VP16 reporter assay.; format: functional
cells [3] = format: functional, cell-based
cells [4] = format: functional, cell-based; remark: listed apart in the source
[5] = target: Mitogen-activated protein kinase 10 (Homo sapiens, UniProt P53779); assay: Dose response biochemical screening assay for inhibitors of c-Jun N-Terminal Kinase 3 (JNK3). [Related pubchem assays: 746 ]
Estrogen receptor = target: T1, Estrogen receptor (Homo sapiens, UniProt P03372);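 also: potency for inhibiting coactivator peptide recruitment to the receptor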
T1 sequence (P03372 whole entry): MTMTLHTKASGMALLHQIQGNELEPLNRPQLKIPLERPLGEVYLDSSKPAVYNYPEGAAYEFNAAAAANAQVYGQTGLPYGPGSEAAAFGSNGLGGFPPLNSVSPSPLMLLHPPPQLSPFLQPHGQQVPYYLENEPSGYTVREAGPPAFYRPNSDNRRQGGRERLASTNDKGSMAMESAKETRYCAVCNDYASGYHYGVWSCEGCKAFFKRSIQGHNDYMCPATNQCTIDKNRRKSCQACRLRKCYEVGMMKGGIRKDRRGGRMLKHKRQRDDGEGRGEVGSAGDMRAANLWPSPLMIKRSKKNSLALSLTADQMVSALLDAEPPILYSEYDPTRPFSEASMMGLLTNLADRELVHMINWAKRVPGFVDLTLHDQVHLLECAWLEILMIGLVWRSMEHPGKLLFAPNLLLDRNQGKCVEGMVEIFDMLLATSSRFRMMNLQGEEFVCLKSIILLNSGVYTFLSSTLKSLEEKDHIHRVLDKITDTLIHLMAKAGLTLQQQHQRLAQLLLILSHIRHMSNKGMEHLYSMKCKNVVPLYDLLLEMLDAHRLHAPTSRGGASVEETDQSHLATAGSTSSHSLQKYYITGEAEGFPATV

Estrogen receptor beta [6] = target: T2, Estrogen receptor beta (Homo sapiens, UniProt Q92731);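 also: recombinant ER-beta bound to coactivator SRC1 peptide in presence of estradiol agonist; inhibitors block coactivator peptide binding and lower the FRET signal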
Estrogen receptor beta [7] = target: T2, Estrogen receptor beta; assay: ERβ–SRC-3 coactivator interaction inhibitors, confirmation, orthogonal assay, biochemical, ELISA, streptavidin-HRP readout (AID 1060)
[8] = inhibitors of firefly luciferase expression or activity, dose response, H4 neuroglioma cells, luminescence (AID 1990); format: functional, cell-based
[9] = Luminescence Cell-Based Dose Response HTS to Identify Inhibitors of 5'UTR Stem-Loop Driven Prion Protein mRNA Translation in H4 Neuroglioblastoma Cells. [Related pubchem assays: 1827 (Project Summary), 1813 (Primary HTS)]; format: functional
[10] = inhibitors of SNCA 5'UTR-driven reporter translation, confirmation, H4 neuroglioma cells, luminescence (AID 1988); format: functional, cell-based
[11] = cytotoxicity in HEK-293T cells, dose response, cytotoxicity control for BCR NF-kB inhibitor project, luminescence, B-cell screen hits (AID 489021); format: functional, cell-based;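 also: HEK-293T cells carrying an NF-kB luciferase reporter; cells exposed to compound for about 14 hours before viability readout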
[12] = target: Voltage-dependent T-type calcium channel subunit alpha-1H (Homo sapiens, UniProt O95180); format: functional;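 also: channel activity triggered by adding a high calcium stimulation buffer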
Paired box protein Pax-8 = Paired box protein Pax-8 (Homo sapiens, UniProt Q06710); assay: inhibitors of PAX8-driven TPO luciferase reporter, dose response, RMG-I cells, cherry-pick (AID 687027); format: functional, cell-based;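 also: luciferase reporter driven by Pax8 target thyroperoxidase promoter measured by SteadyGlo luminescence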
[13] = non-specific cell cytotoxicity, dose response, cytotoxicity control for PAX8 inhibitor project, plate reader, dry powder samples (AID 743021); format: functional, cell-based
[14] = target: Eukaryotic translation initiation factor 4E (Mus musculus, UniProt P63073); assay: eIF4E–eIF4G protein interaction inhibitors, dose response, biochemical, TR-FRET (AID 855); format: functional;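 also: potency for disrupting eIF4E binding to eIF4GI seen as loss of FRET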
[15] = miR-122 activators in hepatoma reporter cells, dose response, cell-based, Huh7 psiCHECK-miR122, Renilla luciferase, cherry-picked (AID 651956); format: functional;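 also: huh7 hepatoma cells stably carrying a psiCHECK-2 miR-122 sensor plasmid; renilla luciferase signal reporting endogenous miR-122 activity after 48 h compound exposure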
[16] = growth suppression of PTEN-null colon cells, dose response, cell-based, HCT116 PTEN knockout (AID 1047); format: functional;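 also: HCT116 colon tumor cells with PTEN knocked out; cells exposed to compound for 60 hours before readout; potency for loss of cell viability measured by luminescence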
[17] = growth suppression of beta-catenin-knockout colon cells, dose response, cell-based, HCT116, human colon tumor (AID 1045); format: functional;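 also: HCT116 colon tumor cells with beta catenin knocked out; cells exposed to compound for 60 hours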
[18] = Luminescence Cell-Based Dose Retest to Confirm Inhibitors of Cancer Stem Cells. [Related pubchem assays (depositor defined):AID2717, AID2721]; format: functional; conditions: Homo sapiens
[19] = target: T3, Replicative DNA helicase DnaB (Mycobacterium tuberculosis, UniProt P9WMR3); assay: DnaB intein splicing inhibitors, dose response, biochemical, cell-free fluorescence (AID 449749); format: functional
T3 sequence (P9WMR3 whole entry): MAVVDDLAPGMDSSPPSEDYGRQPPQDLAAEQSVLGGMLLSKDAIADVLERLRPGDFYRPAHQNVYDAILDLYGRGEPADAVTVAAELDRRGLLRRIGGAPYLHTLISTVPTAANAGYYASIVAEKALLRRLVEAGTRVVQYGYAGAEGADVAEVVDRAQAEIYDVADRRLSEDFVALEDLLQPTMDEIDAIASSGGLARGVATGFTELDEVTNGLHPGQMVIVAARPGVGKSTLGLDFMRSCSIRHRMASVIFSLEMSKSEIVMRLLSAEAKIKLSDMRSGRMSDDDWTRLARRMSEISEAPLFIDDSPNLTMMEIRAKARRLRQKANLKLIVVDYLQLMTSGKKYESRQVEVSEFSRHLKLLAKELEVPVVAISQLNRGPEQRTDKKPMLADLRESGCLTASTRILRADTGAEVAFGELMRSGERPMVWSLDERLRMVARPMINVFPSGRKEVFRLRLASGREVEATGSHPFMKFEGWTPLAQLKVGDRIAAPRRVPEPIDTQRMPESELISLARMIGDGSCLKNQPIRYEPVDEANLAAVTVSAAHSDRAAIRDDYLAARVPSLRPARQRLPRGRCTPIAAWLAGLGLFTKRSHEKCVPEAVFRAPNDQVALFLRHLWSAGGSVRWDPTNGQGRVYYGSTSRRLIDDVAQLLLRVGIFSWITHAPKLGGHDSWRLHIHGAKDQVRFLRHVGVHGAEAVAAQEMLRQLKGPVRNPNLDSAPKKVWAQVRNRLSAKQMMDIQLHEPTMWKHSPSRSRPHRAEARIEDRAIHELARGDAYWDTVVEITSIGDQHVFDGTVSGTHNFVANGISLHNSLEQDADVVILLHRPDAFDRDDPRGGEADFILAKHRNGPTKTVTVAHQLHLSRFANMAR

Vero [20] = assay: cells; format: functional, cell-based; conditions: Chlorocebus sabaeus
Protein RecA = target: T4, Protein RecA (Mycobacterium tuberculosis, UniProt P9WHJ3); assay: Fluorescence Cell-Free Homogeneous Dose Retest to Identify Inhibitors of RecA-Intein Splicing Activity. [Related pubchem assays (depositor defined):AID2097, AID2223, AID489010, AID492950]; format: functional
T4 sequence (P9WHJ3 whole entry): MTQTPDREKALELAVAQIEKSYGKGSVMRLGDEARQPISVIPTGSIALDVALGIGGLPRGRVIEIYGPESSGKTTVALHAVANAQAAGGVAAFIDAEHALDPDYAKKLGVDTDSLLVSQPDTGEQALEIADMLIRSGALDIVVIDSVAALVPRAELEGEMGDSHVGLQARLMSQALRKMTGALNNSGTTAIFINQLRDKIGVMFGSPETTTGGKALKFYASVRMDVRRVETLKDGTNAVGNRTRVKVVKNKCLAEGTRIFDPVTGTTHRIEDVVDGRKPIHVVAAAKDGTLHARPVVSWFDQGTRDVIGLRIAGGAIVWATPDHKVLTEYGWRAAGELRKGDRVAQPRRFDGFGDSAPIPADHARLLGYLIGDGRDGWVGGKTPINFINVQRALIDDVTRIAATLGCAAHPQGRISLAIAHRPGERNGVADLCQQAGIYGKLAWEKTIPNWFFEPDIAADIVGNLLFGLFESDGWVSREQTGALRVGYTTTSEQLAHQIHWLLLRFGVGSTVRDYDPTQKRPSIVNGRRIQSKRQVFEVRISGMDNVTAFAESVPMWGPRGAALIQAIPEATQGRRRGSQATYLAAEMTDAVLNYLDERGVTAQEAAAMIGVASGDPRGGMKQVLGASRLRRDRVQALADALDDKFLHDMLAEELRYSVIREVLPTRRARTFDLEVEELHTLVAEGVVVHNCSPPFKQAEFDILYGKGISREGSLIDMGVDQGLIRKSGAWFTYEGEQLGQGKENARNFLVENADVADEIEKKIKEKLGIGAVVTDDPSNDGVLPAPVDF

INS1 = assay: beta cell apoptosis inhibitors, cytokine rescue, dose response, luminescence, retest (AID 449756); format: functional, cell-based; conditions: Rattus norvegicus;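 also: cell death triggered by IL-1 beta plus TNF-alpha plus IFN-gamma mixture; protective hits raise ATP signal compared with cytokine alone wells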
Vero [21] = assay: cells; format: functional; conditions: Chlorocebus sabaeus
[22] = Fluorescence-based cell-based high throughput dose response assay for inhibitors of the interaction of nucleotide-binding oligomerization domain containing 2 (NOD2) and the receptor-interacting serine-threonine kinase 2 (RIPK2).; format: functional, Homo sapiens; conditions: Homo sapiens
[23] = inhibitors of PGC1a acetylation in cells, dose response, cell-based, cherry-picked samples (AID 720514); format: functional;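 also: potency may reflect raised or lowered acetylation signal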
[24] = HEK293T cytotoxicity, dose response, cytotoxicity control for miR-122 modulator project, cell-based, activator set, cherry-pick (AID 720690); format: functional;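 also: HEK293T human cells scored for general mammalian cytotoxicity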
[25] = HepG2 cell cytotoxicity, dose response, cytotoxicity control, plate reader, cherry-pick, antagonist series (AID 743416); format: functional, cell-based
[26] = A549 cell cytotoxicity, dose response, cytotoxicity control, plate reader, cherry-pick, antagonist series (AID 743412); format: functional, cell-based

T2 sequence (Q92731 whole entry): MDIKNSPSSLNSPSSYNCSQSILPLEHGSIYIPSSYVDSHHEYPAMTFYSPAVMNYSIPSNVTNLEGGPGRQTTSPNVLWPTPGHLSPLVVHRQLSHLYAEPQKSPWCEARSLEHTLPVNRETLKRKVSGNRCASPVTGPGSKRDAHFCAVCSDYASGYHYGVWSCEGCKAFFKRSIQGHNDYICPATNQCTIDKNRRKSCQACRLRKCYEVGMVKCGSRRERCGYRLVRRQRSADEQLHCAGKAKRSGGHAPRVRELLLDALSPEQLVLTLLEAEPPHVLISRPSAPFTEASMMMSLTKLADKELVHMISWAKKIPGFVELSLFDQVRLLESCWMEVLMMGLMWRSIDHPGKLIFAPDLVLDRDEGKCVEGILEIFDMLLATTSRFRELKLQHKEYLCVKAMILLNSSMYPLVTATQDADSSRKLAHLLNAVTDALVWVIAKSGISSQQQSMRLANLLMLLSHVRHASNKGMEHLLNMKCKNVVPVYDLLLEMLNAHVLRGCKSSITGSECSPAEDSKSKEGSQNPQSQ
Sequence of Mitogen-activated protein kinase 10 (P53779 whole entry): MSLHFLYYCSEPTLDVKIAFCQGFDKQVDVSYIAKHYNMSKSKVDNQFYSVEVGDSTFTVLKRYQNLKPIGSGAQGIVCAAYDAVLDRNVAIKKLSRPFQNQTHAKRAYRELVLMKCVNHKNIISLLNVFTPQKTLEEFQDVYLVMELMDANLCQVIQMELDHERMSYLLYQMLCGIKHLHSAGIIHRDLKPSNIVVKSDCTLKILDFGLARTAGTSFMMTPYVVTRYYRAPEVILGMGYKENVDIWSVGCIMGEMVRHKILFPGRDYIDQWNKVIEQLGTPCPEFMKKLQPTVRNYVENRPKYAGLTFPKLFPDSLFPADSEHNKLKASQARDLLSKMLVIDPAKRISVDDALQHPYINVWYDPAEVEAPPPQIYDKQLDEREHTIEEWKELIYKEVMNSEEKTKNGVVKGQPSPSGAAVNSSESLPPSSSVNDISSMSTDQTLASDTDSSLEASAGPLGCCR
Sequence of SWI/SNF-related matrix-associated actin-dependent regulator of chromatin subfamily A member 2 (P51531 whole entry): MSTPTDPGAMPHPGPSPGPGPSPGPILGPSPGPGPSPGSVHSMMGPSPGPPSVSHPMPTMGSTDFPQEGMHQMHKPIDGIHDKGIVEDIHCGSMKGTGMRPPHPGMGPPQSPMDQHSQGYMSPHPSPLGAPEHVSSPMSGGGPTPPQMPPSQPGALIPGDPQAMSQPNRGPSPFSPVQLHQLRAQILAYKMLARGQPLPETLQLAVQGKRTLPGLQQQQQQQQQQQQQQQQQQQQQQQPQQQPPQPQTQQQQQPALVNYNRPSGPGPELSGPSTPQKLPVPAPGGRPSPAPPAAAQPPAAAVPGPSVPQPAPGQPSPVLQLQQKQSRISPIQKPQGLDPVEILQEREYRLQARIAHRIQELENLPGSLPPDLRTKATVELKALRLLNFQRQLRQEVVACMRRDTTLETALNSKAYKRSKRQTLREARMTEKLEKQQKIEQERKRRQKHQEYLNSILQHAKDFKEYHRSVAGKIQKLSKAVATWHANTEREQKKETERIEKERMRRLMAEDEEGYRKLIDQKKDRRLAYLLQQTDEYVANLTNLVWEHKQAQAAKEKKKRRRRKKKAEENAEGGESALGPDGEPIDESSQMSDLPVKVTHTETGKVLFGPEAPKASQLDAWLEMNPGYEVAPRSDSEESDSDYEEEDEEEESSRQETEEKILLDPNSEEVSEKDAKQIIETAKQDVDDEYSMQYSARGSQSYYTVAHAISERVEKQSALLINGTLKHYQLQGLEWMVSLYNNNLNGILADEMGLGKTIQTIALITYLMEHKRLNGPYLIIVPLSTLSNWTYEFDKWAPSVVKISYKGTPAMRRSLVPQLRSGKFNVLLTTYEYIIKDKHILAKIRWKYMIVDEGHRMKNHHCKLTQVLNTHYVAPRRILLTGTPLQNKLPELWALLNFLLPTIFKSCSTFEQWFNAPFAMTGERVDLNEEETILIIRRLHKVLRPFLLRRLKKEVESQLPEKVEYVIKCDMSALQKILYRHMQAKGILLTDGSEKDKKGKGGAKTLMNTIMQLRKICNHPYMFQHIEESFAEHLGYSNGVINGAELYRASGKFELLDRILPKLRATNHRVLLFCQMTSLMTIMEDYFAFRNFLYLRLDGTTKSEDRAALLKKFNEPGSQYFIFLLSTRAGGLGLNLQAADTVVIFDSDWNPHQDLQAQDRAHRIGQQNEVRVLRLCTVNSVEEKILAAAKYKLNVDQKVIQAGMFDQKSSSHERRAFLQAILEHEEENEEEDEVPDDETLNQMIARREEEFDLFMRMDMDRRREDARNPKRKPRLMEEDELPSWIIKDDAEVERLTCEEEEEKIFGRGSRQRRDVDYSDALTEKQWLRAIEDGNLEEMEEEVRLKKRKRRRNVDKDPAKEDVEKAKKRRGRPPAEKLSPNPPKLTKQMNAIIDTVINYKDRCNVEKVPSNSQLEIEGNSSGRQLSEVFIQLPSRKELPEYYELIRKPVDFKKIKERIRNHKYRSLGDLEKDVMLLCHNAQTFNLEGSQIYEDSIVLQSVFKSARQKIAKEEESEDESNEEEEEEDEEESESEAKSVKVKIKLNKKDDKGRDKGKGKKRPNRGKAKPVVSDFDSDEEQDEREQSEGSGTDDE
Sequence of Voltage-dependent T-type calcium channel subunit alpha-1H (O95180 whole entry): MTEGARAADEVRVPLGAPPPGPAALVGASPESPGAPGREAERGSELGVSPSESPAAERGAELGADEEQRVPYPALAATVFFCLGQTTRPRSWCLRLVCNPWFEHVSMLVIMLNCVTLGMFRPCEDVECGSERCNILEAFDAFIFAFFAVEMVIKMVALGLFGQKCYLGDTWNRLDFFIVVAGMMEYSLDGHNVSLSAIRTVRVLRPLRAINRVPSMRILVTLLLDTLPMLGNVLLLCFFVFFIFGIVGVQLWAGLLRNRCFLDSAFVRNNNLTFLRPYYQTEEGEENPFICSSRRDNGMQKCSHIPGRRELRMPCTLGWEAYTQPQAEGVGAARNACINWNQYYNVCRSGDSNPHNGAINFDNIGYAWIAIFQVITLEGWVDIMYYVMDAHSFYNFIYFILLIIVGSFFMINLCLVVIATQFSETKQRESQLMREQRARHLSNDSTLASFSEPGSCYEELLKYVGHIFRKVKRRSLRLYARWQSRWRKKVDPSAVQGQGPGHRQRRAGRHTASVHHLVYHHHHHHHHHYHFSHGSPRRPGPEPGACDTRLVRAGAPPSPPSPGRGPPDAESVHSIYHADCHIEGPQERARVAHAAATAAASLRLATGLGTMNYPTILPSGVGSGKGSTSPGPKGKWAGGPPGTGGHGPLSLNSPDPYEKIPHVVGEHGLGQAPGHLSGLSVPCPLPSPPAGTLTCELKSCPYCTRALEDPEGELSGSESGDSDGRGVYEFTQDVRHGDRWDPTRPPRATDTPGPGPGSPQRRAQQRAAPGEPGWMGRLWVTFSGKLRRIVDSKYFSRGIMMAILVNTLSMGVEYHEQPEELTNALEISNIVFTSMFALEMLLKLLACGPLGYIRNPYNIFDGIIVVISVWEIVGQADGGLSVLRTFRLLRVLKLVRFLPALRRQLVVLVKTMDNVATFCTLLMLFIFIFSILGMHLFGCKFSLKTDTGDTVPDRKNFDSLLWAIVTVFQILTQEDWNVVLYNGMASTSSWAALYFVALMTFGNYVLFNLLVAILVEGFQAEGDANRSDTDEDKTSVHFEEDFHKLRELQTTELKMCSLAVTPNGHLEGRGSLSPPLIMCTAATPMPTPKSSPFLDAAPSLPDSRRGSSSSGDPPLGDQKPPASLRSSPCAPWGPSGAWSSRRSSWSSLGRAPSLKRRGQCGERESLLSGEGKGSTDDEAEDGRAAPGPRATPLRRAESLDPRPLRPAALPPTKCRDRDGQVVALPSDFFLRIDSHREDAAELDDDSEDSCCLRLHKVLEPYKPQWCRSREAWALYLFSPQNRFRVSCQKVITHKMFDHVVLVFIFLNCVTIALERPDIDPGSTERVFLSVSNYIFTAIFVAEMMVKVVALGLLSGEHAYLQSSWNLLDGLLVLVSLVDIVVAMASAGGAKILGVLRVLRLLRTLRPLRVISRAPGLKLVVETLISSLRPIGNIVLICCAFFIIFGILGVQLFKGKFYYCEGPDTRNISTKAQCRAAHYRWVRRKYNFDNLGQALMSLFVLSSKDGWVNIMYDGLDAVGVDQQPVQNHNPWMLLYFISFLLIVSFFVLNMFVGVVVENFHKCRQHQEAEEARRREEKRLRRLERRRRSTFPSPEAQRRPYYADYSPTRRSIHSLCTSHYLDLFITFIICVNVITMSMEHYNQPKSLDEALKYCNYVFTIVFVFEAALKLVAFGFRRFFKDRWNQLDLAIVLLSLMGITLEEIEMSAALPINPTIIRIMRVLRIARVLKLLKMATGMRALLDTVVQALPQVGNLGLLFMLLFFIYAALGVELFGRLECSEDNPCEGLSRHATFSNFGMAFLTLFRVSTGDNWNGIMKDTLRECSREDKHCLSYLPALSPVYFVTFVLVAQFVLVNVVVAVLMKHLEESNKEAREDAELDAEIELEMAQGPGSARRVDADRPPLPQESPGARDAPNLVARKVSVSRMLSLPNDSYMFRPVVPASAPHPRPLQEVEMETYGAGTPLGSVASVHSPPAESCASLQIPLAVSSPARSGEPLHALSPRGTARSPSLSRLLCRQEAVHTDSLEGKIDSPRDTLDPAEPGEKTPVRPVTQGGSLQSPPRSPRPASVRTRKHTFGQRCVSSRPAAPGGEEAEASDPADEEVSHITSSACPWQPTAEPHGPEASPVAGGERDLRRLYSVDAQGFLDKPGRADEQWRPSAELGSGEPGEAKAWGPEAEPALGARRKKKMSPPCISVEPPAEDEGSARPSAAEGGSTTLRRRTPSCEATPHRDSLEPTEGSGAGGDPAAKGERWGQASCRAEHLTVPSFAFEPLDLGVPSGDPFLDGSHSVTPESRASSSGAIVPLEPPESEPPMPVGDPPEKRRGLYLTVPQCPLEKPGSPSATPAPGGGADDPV

Cc1nccc(-c2cc(-c3ccc(Cl)cc3Cl)no2)n1
EC50 [1]: > 91.2 µM (inactive) | EC50 [2]: > 91.2 µM (inactive)

Cc1c(C#N)c(O)n(CCO)c(=O)c1CN1CCCC(C)C1 (configuration not stated)
IC50 (cells [3]): > 29.9 µM (inactive) | EC50 (cells [4]): > 29.9 µM (inactive)

CN(c1ccc(C(=O)Nc2nccs2)cc1)S(=O)(=O)c1ccccc1
IC50 [5]: 46.9 µM (not active)

c1ccc2[nH]c3c4ccccc4nc-3nc2c1
IC50 [5]: 13.9 µM (not active)

CCn1nnc(NC(=O)CSc2ccc(Cl)cc2)n1
IC50 (Estrogen receptor): 9.27 µM (active) | IC50 (Estrogen receptor beta [6]): 4.65 µM (active) | IC50 (Estrogen receptor beta [7]): > 109 µM (not active)

CC(=O)c1c(COC(=O)c2ccco2)nc2ccccc2[n+]1[O-]
EC50 [8]: > 120 µM (not active) | EC50 [9]: > 120 µM (not active) | EC50 [10]: > 120 µM (not active) | IC50 (Estrogen receptor): 29.2 µM (active) | IC50 (Estrogen receptor beta [6]): 10.8 µM (active) | IC50 (Estrogen receptor beta [7]): < 77 µM (not active)

COC(=O)c1[nH]c2ccc(C)cc2c1NC(=O)Nc1ccccc1OC
IC50 [11]: > 80 µM (inactive)

Cc1nnc(SCc2nc3ccccc3s2)n1N
EC50 [1]: > 91.1 µM (inactive) | EC50 [2]: > 91.1 µM (inactive)

CS(=O)(=O)N1CCN(c2ccccc2NC(=O)CSc2ccc(Cl)cc2)CC1
IC50 [5]: 90.5 µM (not active) | EC50 [12]: 7.39 µM (active)

Cc1ccc(Cl)cc1N1CCN(C(=O)c2noc(C)c2[N+](=O)[O-])CC1
AC50 (Paired box protein Pax-8): 6.41 µM (active) | AC50 [13]: 43.2 µM (active)

Cn1c(C(C)(O)C(O)c2ccccc2)nc2ccccc21 (configuration not stated)
IC50 [14]: > 64 µM (inactive)

COc1cccc(CNC(=O)COC(=O)c2nc(Cl)c(Cl)c(Cl)c2Cl)c1
EC50 [1]: > 91.2 µM (inactive) | EC50 [2]: > 91.2 µM (inactive)

CC(=O)c1cccc(S(=O)(=O)NCC2CCCCC2)c1
AC50 [15]: 5.36 µM (active)

O=C1NC2=C(C(=O)c3ccccc32)C(c2ccccc2)N1 (configuration not stated)
IC50 [5]: 38.3 µM (not active)

O=C(NCc1cccnc1)/C(=C\c1ccc(-c2cccc(Cl)c2)o1)S(=O)(=O)c1ccccc1
EC50 [16]: 3.2 µM (active) | EC50 [17]: 2.86 µM (active) | AC50 [18]: 2.35 µM (active) | AC50 [19]: 13.7 µM (active) | IC50 (Vero [20]): 22.8 µM (active) | EC50 (Protein RecA): 17.8 µM (active) | AC50 (INS1): 7.76 µM (active) | CC50 (Vero [21]): 9.17 µM (active) | IC50 [22]: 10.8 µM (inactive) | AC50 [23]: 15 µM (active)

CC(C)(C)OC(=O)N1CCN(c2ccc(NC(=O)Cn3nnc(-c4ccccc4)n3)cc2)CC1
IC50 (Estrogen receptor beta [6]): 6.06 µM (active) | IC50 (Estrogen receptor beta [7]): 2.7 µM (not active)

CCOc1ccc(NC(=O)CCCc2cc(-c3ccc(OCC)cc3)on2)cc1
IC50 [11]: > 80 µM (inactive)

CCC(=O)N(C)C[C@H]1Oc2cc(C#CC3CCCCC3)ccc2S(=O)(=O)N([C@@H](C)CO)C[C@H]1C
AC50 [15]: 7.88 µM (active) | AC50 [24]: 27.7 µM (active)

CCN(C[C@@H]1N[C@@H](CO)[C@H]1c1ccc(-c2cccc(F)c2)cc1)C(=O)CN(C)C
AC50 [15]: 13 µM (active) | AC50 [24]: 25.7 µM (active)

N#C[C@H]1[C@@H](c2ccc(C3=CCCCC3)cc2)[C@H](CO)N1C(=O)c1ccccn1
AC50 [25]: 34.2 µM (active)

Cc1ccc(S(=O)(=O)Nc2ccc3c(c2)C(=O)N([C@H](C)CO)C[C@@H](C)[C@H](CN(C)S(=O)(=O)c2cccs2)OCCCC[C@@H](C)O3)cc1
AC50 [26]: 32.1 µM (active) | AC50 [25]: > 52 µM (inactive)
